Data set [1] deals with Mtb. Description: Mtb growth assay in cholesterol medium (OD600). The following applies: for OD600: Fig. 2G.
Text: (§1) Bacterial growth was tracked by measuring OD600 every 3 days for 12 days. […] Bacterial growth was tracked by measurement of OD600 every 3 days over 12 days.
Data set [2] relates to WT Mtb (Erdman) in primary murine BMDMs. In words: Primary murine bone marrow-derived macrophage infection, CFU. In kind it is cell-based, Mycobacterium tuberculosis. Particulars: Fig. 2E, 10 µM. As for the experimental part:
C57BL/6J wild-type mice (Jackson Laboratories) were used for extraction of BMDMs. Cells were harvested and expanded in DMEM containing 10% FBS, 15% L-cell conditioned media, 2 mM L-glutamine, 1 mM sodium pyruvate, and penicillin/streptomycin as needed in a 37°C incubator in a 5% CO2 atmosphere. […] Macrophages were lysed with water containing 0.01% sodium dodecyl sulfate and a dilution series of the samples plated on 7H10 agar for CFU determination.

The test system of data set [3] is Mtb-infected J774 cells. The following applies: 10 μM, 24 hours, 5 days post-infection.
The test system of data set [4] is J774 cells. Description: Intracellular drug accumulation assay in J774 cells (LC-MS). The following applies: 24 hours.
Data set [5] deals with Mtb. Description: Mtb growth assay in standard 7H9 medium (OD600). Particulars: Fig. 2F.
Text: as §1
In data set [6] the test system is CDC1551(rv2390c′::GFP) reporter Mtb strain. Particulars: for Normalized % induction: Fig. 2C, DMSO = 100.
Data set [7] deals with Mtb growth in J774 macrophage-like cells. Description: J774 infection in 96-well plates, mKO fluorescence 6 days post-infection. In kind it is cell-based, Mycobacterium tuberculosis. Particulars: for % Growth: Fig. 2D, DMSO = 100. The method, then:
For J774 infection in 96-well plates, 1.8 × 10^5 J774 cells were seeded per well in 180 μl of J774 infection media 1 day prior to infection. On the day of the assay, log-phase Mtb constitutively expressing mKO were pelleted and resuspended in 1 ml basal uptake buffer, passed 6× through a tuberculin syringe with a 25 G × 5/8″ needle, then resuspended in J774 infection media to a final OD600 = 0.2. Media was removed from 96-well plate containing the J774 cells, with 140 μl of fresh J774 infection media added back to each well. A volume of 40 μl of the Mtb suspension at OD600 = 0.2 was added to each well, followed by addition of appropriate concentration of compound or DMSO in a 20-μl final volume in J774 infection media (compound final concentration 10 μM, rifampicin final concentration 5 μM, DMSO final concentration 0.1%/well). Bacterial mKO fluorescence was read immediately after infection using a Biotek Synergy Neo2 microplate reader (bottom read monochromator, excitation 543/10 nm, emission 565/10 nm), and again 6 days post-infection. Plates were kept in humidified ziplock bags in a 37°C, 5% CO2 incubator. mKO fluorescence in DMSO-treated control samples were defined as 100% growth, and fluorescence observed in treatment conditions calculated as a percentage from that set value.

Data set [8] relates to Mtb CDC1551. In words: Intrabacterial drug accumulation assay (LC-MS). The following applies: 24-hour exposure, 7H9 pH 7 ± 250 mM NaCl.
The test system of data set [9] is Mtb. Also noted: method as in PMID 26574016, PMID 27227164. The following applies: mice do not form caseous necrotic lesions; cited from earlier work.
Data set [10] concerns Mtb. Further details: method as in PMID 26574016, PMID 27227164. The following applies: subset of mice failing to respond; cited from earlier work.

The values below come from PMC8351955, “Targeting Mycobacterium tuberculosis response to environmental cues for the development of effective antitubercular drugs” (PLoS Biology, 2021).

Structures are written as SMILES. Several values for one entry are separate records, joined by “and”; a condition that tells them apart may be missing. Equal entries are not always repeated. Where two headings read alike, the source gives them in different places.

In the case of `CCSc1ccc(CN2CCN(c3nc4ccccc4o3)CC2)cc1` [JSF-4300, 2-(4-(4-(ethylthio)benzyl)piperazin-1-yl)benzo[d]oxazole], the “Inhibition of Mtb growth in cholesterol media” value in [1] (10 μM, OD600 over 12 days) is recorded as “continuing to demonstrate the phenotypes seen with the parental C6 compound”. The OD600 is 0.06 in [1] (day 3, average); 0.06 in data set [1] (day 3, individual replicates); 0.09333 in [1] (day 6, average); 0.1 (2×) and 0.08 in data set [1] (day 6, individual replicates); 0.1333 in data set [1] (day 9, average); 0.14 (2×) and 0.12 in [1] (day 9, individual replicates). Besides, the OD600 in data set [1] (day 12, average) is 0.16; in [1] (day 12, individual replicates), 0.16 and 0.14 and 0.18; in data set [5] (day 3, average) it was 0.1733; in [5] (day 3, individual replicates), 0.18 (2×) and 0.16; in data set [5] (day 6, average) it was 0.3867; in data set [5] (day 6, individual replicates) it was 0.38 (2×) and 0.4. The OD600 in data set [5] (day 9, average) is 0.4933; in data set [5] (day 9, individual replicates) it was 0.48 (2×) and 0.52; in data set [5] (day 12, average) it was 0.6467; in data set [5] (day 12, individual replicates), 0.64 (2×) and 0.66. Moreover, the CFU/ml is 472667 CFU/ml in [2] (day 2, average); 482000 CFU/ml and 478000 CFU/ml and 458000 CFU/ml in [2] (day 2, individual replicates); 660000 CFU/ml in [2] (day 4, average); 620000 CFU/ml and 660000 CFU/ml and 700000 CFU/ml in data set [2] (day 4, individual replicates); 806667 CFU/ml in data set [2] (day 6, average); 740000 CFU/ml (2×) and 940000 CFU/ml in [2] (day 6, individual replicates). Besides, the CFU/ml is 966667 CFU/ml in data set [2] (day 8, average); 1080000 CFU/ml and 800000 CFU/ml and 1020000 CFU/ml in [2] (day 8, individual replicates). For the same molecule, in data set [3], the “Accumulation in Mtb-infected J774 cells” value is on record as “robust accumulation”. Also, in [4], the “Intracellular accumulation in J774 cells” value is given as “robust accumulation”. In addition, the Normalized % induction is 125.329% in data set [6] (average of 3 replicates); 120.3% and 121.44% and 134.248% in data set [6] (individual replicates). In addition, in [6] (pH 7), the “Ability to increase rv2390c′::GFP reporter signal in high [Cl−]” value was “continuing to demonstrate the phenotypes seen with the parental C6 compound”. Further, the “Inhibition of Mtb growth in J774 cells” value in data set [7] (10 μM, 6 days post-infection) is on record as “continuing to demonstrate the phenotypes seen with the parental C6 compound”. The “% Growth” value in data set [7] (average of 4 replicates) is 60.6248%; in [7] (individual replicates), 59.61% and 62.908% and 58.5309% and 61.4502%. The “Intrabacterial accumulation in Mtb” value in data set [8] is reported as “robust accumulation”.
In the case of `NC(=O)c1cnccn1` [pyrazinamide], in data set [9], the “Efficacy across animals in BALB/c mice” value is listed as “uniform efficacy across animals”. Also, the “Response in C3HeB/FeJ mice” value in [10] is given as “heterogeneous response”.
In the case of `COc1nc2ccc(Br)cc2cc1[C@@H](c1ccccc1)[C@@](O)(CCN(C)C)c1cccc2ccccc12` [bedaquiline], the “Efficacy across animals in BALB/c mice” value in [9] is listed as “uniform efficacy across animals”. The “Response in C3HeB/FeJ mice” value in data set [10] is listed as “heterogeneous response”.
